Measured values as given in DBAASP.
≈ marks a conversion by molar mass, not a printed value. Values belong to the compound of their own block, whether it stands above or below them.

What was measured:
Assay in all cases: ≥ marks a high value that may be exact or a test limit, other limits are often not marked, values filed in µg/mL are converted to µM
[1] = tested on: Enterococcus faecalis ATCC 29212
[2] = tested on: Staphylococcus aureus T7/20
[3] = tested on: Candida albicans ATCC 90028
[4] = tested on: Proteus mirabilis ATCC 25933
[5] = tested on: Klebsiella pneumoniae KK3 9904
[6] = tested on: Staphylococcus aureus NCTC 8325
[7] = tested on: Pseudomonas aeruginosa ATCC 27853
[8] = tested on: Staphylococcus epidermidis RP62A
[9] = tested on: Escherichia coli ATCC 25922
[10] = tested on: Enterobacter cloacae HNTCC 53001
[11] = tested on: Brucella abortus 9.49 (per-)
[12] = tested on: Pseudomonas aeruginosa CUN 4158-02
Yersinia pestis KIM pYV = tested on: Yersinia pestis KIM pYV
[13] = tested on: Staphylococcus aureus ΔmprFpRBsyn
Staphylococcus aureus = tested on: Staphylococcus aureus
[14] = tested on: Staphylococcus aureus ΔmprF
[15] = tested on: Acinetobacter baumannii ATCC 19606
[16] = tested on: Staphylococcus aureus ATCC 43300
[17] = tested on: Staphylococcus aureus CMCC 26003
[18] = tested on: Staphylococcus epidermidis ATCC 12228
[19] = tested on: Bordetella bronchiseptica CUN 11844-99
[20] = tested on: Escherichia coli CMCC 44102
[21] = tested on: Staphylococcus epidermidis
Escherichia coli KF130 = tested on: Escherichia coli KF130
[22] = tested on: Pseudomonas aeruginosa H374
[23] = tested on: Pseudomonas aeruginosa H744
[24] = tested on: Pseudomonas aeruginosa K799
Escherichia coli UB1005 = tested on: Escherichia coli UB1005
Escherichia coli = tested on: Escherichia coli
Escherichia coli KF111 = tested on: Escherichia coli KF111
[25] = tested on: Salmonella enterica subsp. enterica serovar Typhimurium ATCC 14028s
Micrococcus luteus = tested on: Micrococcus luteus
Candida tropicalis = tested on: Candida tropicalis
[26] = tested on: Phytophthora nicotianae PG344
Bacillus megaterium Bm11 = tested on: Bacillus megaterium Bm11
Mammaliicoccus lentus = tested on: Mammaliicoccus lentus
[27] = tested on: Streptococcus gordonii Challis DL1
[28] = tested on: Streptococcus mutans UA159
[29] = tested on: Streptococcus sanguinis NY101
Escherichia coli W3110 = tested on: Escherichia coli W3110
[30] = tested on: Streptococcus sobrinus ATCC 33478
[31] = tested on: Streptococcus mitis ATCC 903
[32] = tested on: Pseudomonas aeruginosa PAK
Enterococcus faecalis = tested on: Enterococcus faecalis

Compound: CC[C@H](C)[C@H](NC(=O)[C@H](CCCN=C(N)N)NC(=O)[C@H](CCCN=C(N)N)NC(=O)[C@H](CC(C)C)NC(=O)[C@H](Cc1ccccc1)NC(=O)[C@@H](NC(=O)[C@H](CCCN=C(N)N)NC(=O)[C@H](CCSC)NC(=O)[C@@H](NC(=O)[C@H](CCCCN)NC(=O)[C@H](CCCCN)NC(=O)[C@H](CS)NC(=O)[C@@H](NC(=O)CNC(=O)[C@H](CCCN=C(N)N)NC(=O)[C@H](CC(C)C)NC(=O)[C@@H](NC(=O)[C@@H](N)CCCCN)[C@@H](C)CC)C(C)C)[C@@H](C)CC)[C@@H](C)O)C(=O)N[C@@H](CO)C(=O)N[C@@H](CCCCN)C(=O)N[C@@H](CC(=O)O)C(=O)N[C@H](C(=O)N[C@@H](CC(C)C)C(=O)N[C@H](C(=O)NCC(=O)N[C@@H](CCCCN)C(=O)N[C@@H](CCCCN)C(N)=O)[C@@H](C)O)[C@@H](C)CC [KILRGVCKKIMRTFLRRISKDILTGKK]
MIC [11]: 9.99 µM (≈ 32 µg/mL) | MIC [12]: 9.99 µM (≈ 32 µg/mL) | MIC (Yersinia pestis KIM pYV): ≥ 79.9 µM | MIC [13]: 2.5 µM (≈ 8 µg/mL) | MIC (Staphylococcus aureus): 20 µM (≈ 64 µg/mL) | MIC [14]: 2.5 µM (≈ 8 µg/mL) | MIC [15]: 0.624 µM (≈ 2 µg/mL) | MIC [16]: 79.9 µM (≈ 256 µg/mL) | MIC [7]: 8 µM (≈ 25.6 µg/mL) | MIC [17]: 2 µM (≈ 6.4 µg/mL) | MIC [9]: 5 µM (≈ 16 µg/mL) | MIC [18]: 2 µM (≈ 6.4 µg/mL) | MIC [19]: 1.25 µM (≈ 4 µg/mL) | MIC [20]: 4 µM (≈ 12.8 µg/mL)

Compound: CC[C@H](C)[C@H](NC(=O)[C@@H]1CCCN1C(=O)[C@H](CCCCN)NC(=O)[C@H](CC(C)C)NC(=O)[C@H](C)NC(=O)[C@@H](NC(=O)[C@H](Cc1cnc[nH]1)NC(=O)[C@H](Cc1ccccc1)NC(=O)[C@@H](NC(=O)[C@@H](NC(=O)[C@H](CCCN=C(N)N)NC(=O)[C@@H](NC(=O)[C@@H]1CCCN1C(=O)[C@H](CO)NC(=O)[C@H](CCCCN)NC(=O)[C@H](Cc1ccccc1)NC(=O)[C@@H](NC(=O)[C@H](CCCN=C(N)N)NC(=O)[C@H](CC(C)C)NC(=O)[C@H](Cc1ccccc1)NC(=O)[C@H](CO)NC(=O)[C@H](CCCCN)NC(=O)[C@H](Cc1c[nH]c2ccccc12)NC(=O)[C@@H](N)CCCCN)[C@@H](C)O)C(C)C)[C@@H](C)O)C(C)C)[C@@H](C)O)C(=O)N[C@@H](CO)C(=O)N[C@@H](CO)C(=O)O [KWKSFLRTFKSPVRTVFHTALKPISS]
MIC [21]: 5.22 µM (≈ 16 µg/mL) | MIC (Escherichia coli KF130): 1.31 µM (≈ 4 µg/mL) | MIC [22]: 5.22 µM (≈ 16 µg/mL) | MIC [23]: 5.22 µM (≈ 16 µg/mL) | MIC [24]: 5.22 µM (≈ 16 µg/mL) | MIC (Staphylococcus aureus): > 20.9 µM | MIC (Escherichia coli UB1005): 0.653 µM (≈ 2 µg/mL) | MIC (Escherichia coli): 0.653 µM (≈ 2 µg/mL) | MIC (Escherichia coli KF111): 1.31 µM (≈ 4 µg/mL) | MIC [25]: 2.61 µM (≈ 8 µg/mL)

Compound: NCCCC[C@H](NC(=O)[C@H](Cc1c[nH]c2ccccc12)NC(=O)[C@@H](N)Cc1c[nH]c2ccccc12)C(=O)N[C@@H](CC(=O)O)C(=O)N[C@@H](Cc1c[nH]c2ccccc12)C(=O)N[C@@H](Cc1c[nH]c2ccccc12)C(=O)N[C@@H](CCC(=O)O)C(=O)N[C@@H](CCCN=C(N)N)C(=O)N[C@@H](Cc1c[nH]c2ccccc12)C(N)=O [WWKDWWERW]
MIC [27]: ≥ 338 µM | MIC [28]: ≥ 338 µM | MIC (Staphylococcus aureus): > 338 µM | MIC [29]: ≥ 338 µM | MIC (Escherichia coli W3110): ≥ 338 µM | MIC [30]: ≥ 338 µM | MIC [31]: ≥ 338 µM | MIC [32]: ≥ 338 µM | MIC (Enterococcus faecalis): ≥ 338 µM

Continued, values first:

MIC [1]: 25 µM (≈ 84 µg/mL) | MIC [2]: 25 µM (≈ 84 µg/mL) | MIC [3]: ≥ 100 µM | MIC [4]: ≥ 100 µM | MIC [5]: 6 µM (≈ 20.2 µg/mL) | MIC [6]: 12.5 µM (≈ 42 µg/mL) | MIC [7]: 6 µM (≈ 20.2 µg/mL) | MIC [8]: 12.5 µM (≈ 42 µg/mL) | MIC [9]: 3 µM (≈ 10.1 µg/mL) | MIC [10]: 6 µM (≈ 20.2 µg/mL)
Compound: CC[C@H](C)[C@H](NC(=O)CN)C(=O)N[C@@H](CCSC)C(=O)N[C@@H](CO)C(=O)N[C@@H](CC(C)C)C(=O)N[C@@H](Cc1ccccc1)C(=O)N[C@@H](CCCCN)C(=O)NCC(=O)N[C@H](C(=O)N[C@@H](CC(C)C)C(=O)N[C@@H](CCCCN)C(=O)N[C@H](C(=O)N[C@@H](C)C(=O)NCC(=O)N[C@@H](CCCCN)C(=O)N[C@@H](Cc1cnc[nH]1)C(=O)N[C@H](C(=O)N[C@@H](C)C(=O)NCC(=O)N[C@@H](CO)C(=O)N[C@@H](CC(C)C)C(=O)N[C@H](C(=O)N[C@@H](CC(=O)O)C(=O)N[C@@H](CCC(N)=O)C(=O)N[C@@H](CC(C)C)C(=O)N[C@@H](CCCCN)C(=O)N[C@H]1CSSC[C@@H](C(=O)O)NC(=O)CNC(=O)CNC(=O)[C@H]([C@@H](C)O)NC(=O)[C@H]([C@@H](C)CC)NC(=O)[C@H](CCCCN)NC1=O)C(C)C)C(C)C)[C@@H](C)O)C(C)C [GIMSLFKGVLKTAGKHVAGSLVDQLKCKITGGC]

MIC (Micrococcus luteus): 10 µM (≈ 21.3 µg/mL) | MIC (Candida tropicalis): 11 µM (≈ 23.5 µg/mL) | MIC [26]: ≥ 75 µM | MIC (Bacillus megaterium Bm11): 20 µM (≈ 42.7 µg/mL) | MIC (Mammaliicoccus lentus): ≥ 50 µM
Compound: CC(C)C[C@H](N)C(=O)N[C@H](C(=O)N[C@@H](CCCN=C(N)N)C(=O)NCC(=O)N[C@H]1CSSC[C@@H](C(=O)N[C@@H](Cc2ccccc2)C(=O)N[C@H](C(=O)N[C@@H](CCCN=C(N)N)C(N)=O)C(C)C)NC(=O)[C@@H]2CCCN2C(=O)[C@H](CCCCN)NC(=O)[C@@H]2CCCN2C(=O)[C@@H]2CCCN2C(=O)[C@H](Cc2ccc(O)cc2)NC(=O)[C@H](CO)NC(=O)[C@H](CCCCN)NC(=O)[C@H]([C@@H](C)O)NC(=O)[C@H](Cc2c[nH]c3ccccc23)NC1=O)C(C)C [LVRGCWTKSYPPKPCFVR]
